# Measured values reported in patent publication US8822517B2, “Arylosulfonamides for the treatment of CNS diseases” (Adamed SP. Z O.O., priority 2010, dated 2014).
# What was measured:
# [1] = molecular target: T1, serotoninergic receptor 5-HT2C (Homo sapiens, UniProt P28335); assay: Binding assay 5-HT2C (h), [3H]mesulergine, HEK-293 cells; settings: read-out: 5-HT2C [%]
# T1 construct: expressed in transfected cells; host or cells: HEK-293 cells
# T1 sequence (P28335 33-458): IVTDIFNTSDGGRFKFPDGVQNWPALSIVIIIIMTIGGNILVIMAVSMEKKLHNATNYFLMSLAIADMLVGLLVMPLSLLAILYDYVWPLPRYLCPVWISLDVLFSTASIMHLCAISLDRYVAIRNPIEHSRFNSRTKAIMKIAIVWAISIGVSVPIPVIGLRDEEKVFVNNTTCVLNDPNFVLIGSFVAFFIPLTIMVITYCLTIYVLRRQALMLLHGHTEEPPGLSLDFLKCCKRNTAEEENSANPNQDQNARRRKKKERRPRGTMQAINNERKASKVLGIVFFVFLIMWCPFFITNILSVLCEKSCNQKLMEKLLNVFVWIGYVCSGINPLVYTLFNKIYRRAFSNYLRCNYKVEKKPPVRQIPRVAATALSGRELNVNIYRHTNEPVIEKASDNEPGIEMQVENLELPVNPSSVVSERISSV
# How it was run: (§1)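 At 1×10^−6 M, compounds were assessed for their effect on specific radioligand binding, computed as total less nonspecific binding (excess unlabelled ligand present).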
# [2] = molecular target: T2, serotonine transporter (SERT) receptor (Homo sapiens, UniProt P31645); assay: Binding assay SERT (h), [3H]imipramine, CHO cells; settings: read-out: SERT [%]
# T2 construct: expressed in transfected cells; host or cells: CHO cells
# How it was run: as §1
# [3] = molecular target: serotoninergic 5-HT2A receptor (Homo sapiens, UniProt P28223); assay: Cellular functional assay, serotoninergic 5-HT2A receptor (agonism/antagonism); type: cell-based; settings: for activation at 1 µM: read-out: 5-HT2A -ag [%]; for inhibition at 1 µM: read-out: 5-HT2A -antag [%]
# Method: (§2) […]. The compounds were tested at the concentration of 1×10^−6M.
# (§3) Conditions and methodology (by reference to the literature) of cellular functional assays are given in Table 13 and the tests results for representative compounds are given in Table 14 (dopaminergic receptor D2), in Table 15 (dopaminergic receptor D3), in Table 16 (serotoninergic receptor 5-HT1A), in Table 17 (serotoninergic receptor 5-HT2A), in Table 18 (serotoninergic receptor 5-HT6), in Table 19 (serotoninergic receptor 5-HT7), in Table 20 (adrenergic α1 receptor), in Table 21 (adrenergic α2C receptor), in Table 22 (histaminergic H1 receptor) and in Table 23 (serotoninergic 5-HT2C receptor). In the Tables ag refers to agonism, and antag to antagonism).
# dopaminergic D3 receptor = dopaminergic D3 receptor (Homo sapiens, UniProt P35462); assay: Cellular functional assay, dopaminergic D3 receptor (agonism/antagonism); type: cell-based; settings: for inhibition at 1 µM: CHO, read-out: D3-antag. [%]; for activation at 1 µM: agonist effect, percent of control specific agonist response (300 nM dopamine for control), 1×10^−6 M, D3 (h), CHO cells, read-out: D3-ag [%]
# Method: (§4) The compounds were tested at the concentration of 1×10^−6M.
# (§5) In the Tables ag refers to agonism, and antag to antagonism).
# [4] = molecular target: T3, serotoninergic 5-HT7 receptor (Homo sapiens, UniProt P34969); assay: Cellular functional assay, serotoninergic 5-HT7 receptor (agonism/antagonism); type: cell-based; settings: for activation at 1 µM: agonist effect, percent of control specific agonist response, compounds tested at 1×10^−6M, read-out: 5-HT7-ag [%]; for inhibition at 1 µM: read-out: 5-HT7-antag. [%]
# Method: as §4, §5
# [5] = molecular target: T3, serotoninergic 5-HT7 receptor; assay: Binding assay 5-HT7 (h), [3H]LSD, CHO cells; set-up: expressed in transfected cells; host or cells: CHO cells; settings: read-out: 5-HT7
# How it was run: as §1
# adrenergic α1A receptor = molecular target: T4, adrenergic α1A receptor (Homo sapiens, UniProt P35348); assay: Cellular functional assay, adrenergic α1A receptor (agonism/antagonism); type: cell-based; settings: for activation at 1 µM: agonist effect, percent of control specific agonist response, compounds tested at 1×10^−6M, read-out: α1A -ag [%]; for inhibition at 1 µM: read-out: α1A -antag. [%]
# T4 sequence (P35348 1-466): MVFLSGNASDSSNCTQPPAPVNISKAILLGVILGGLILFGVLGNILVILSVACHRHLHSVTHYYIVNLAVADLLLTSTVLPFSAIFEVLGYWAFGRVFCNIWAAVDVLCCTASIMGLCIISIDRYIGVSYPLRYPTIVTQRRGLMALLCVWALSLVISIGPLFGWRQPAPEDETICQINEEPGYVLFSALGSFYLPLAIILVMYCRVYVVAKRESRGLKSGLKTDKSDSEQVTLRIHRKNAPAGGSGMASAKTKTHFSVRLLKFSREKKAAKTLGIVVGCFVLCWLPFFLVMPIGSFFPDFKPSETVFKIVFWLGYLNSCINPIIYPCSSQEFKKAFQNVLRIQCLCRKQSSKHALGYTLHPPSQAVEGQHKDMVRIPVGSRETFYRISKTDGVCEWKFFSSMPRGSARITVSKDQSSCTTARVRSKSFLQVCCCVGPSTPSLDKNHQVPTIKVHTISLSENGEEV
# Method: as §2, §3
# dopaminergic D2 receptor = dopaminergic D2 receptor (Homo sapiens, UniProt P14416); assay: Cellular functional assay, dopaminergic D2 receptor (agonism/antagonism); type: cell-based; settings: HEK293; for activation at 1 µM: agonist effect, percent of control specific agonist response (3 μM dopamine for control), 1×10^−6 M, D2S (h), HEK-293 cells, read-out: D2-ag [%]; for inhibition at 1 µM: read-out: D2-antag. [%]
# Method: as §4, §5
# [6] = molecular target: serotoninergic 5-HT6 receptor (Homo sapiens, UniProt P50406); assay: Cellular functional assay, serotoninergic 5-HT6 receptor (agonism/antagonism); type: cell-based; settings: for activation at 1 µM: agonist effect, percent of control specific agonist response, compounds tested at 1×10^−6M, read-out: 5-HT6-ag [%]; for inhibition at 1 µM: read-out: 5-HT6-antag. [%]
# Method: as §4, §5
# Sequence of serotoninergic 5-HT6 receptor (P50406 whole entry): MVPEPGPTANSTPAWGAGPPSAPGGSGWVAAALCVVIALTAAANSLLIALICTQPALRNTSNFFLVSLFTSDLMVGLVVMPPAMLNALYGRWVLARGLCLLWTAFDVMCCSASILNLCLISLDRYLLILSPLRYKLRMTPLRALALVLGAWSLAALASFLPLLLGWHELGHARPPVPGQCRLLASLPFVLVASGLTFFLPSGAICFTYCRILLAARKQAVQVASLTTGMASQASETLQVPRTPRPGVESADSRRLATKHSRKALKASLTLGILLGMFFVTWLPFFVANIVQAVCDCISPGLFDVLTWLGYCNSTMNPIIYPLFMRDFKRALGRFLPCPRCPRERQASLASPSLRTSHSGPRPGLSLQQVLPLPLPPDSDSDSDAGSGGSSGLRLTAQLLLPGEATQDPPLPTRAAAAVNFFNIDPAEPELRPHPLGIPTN
# Sequence of dopaminergic D3 receptor (P35462 whole entry): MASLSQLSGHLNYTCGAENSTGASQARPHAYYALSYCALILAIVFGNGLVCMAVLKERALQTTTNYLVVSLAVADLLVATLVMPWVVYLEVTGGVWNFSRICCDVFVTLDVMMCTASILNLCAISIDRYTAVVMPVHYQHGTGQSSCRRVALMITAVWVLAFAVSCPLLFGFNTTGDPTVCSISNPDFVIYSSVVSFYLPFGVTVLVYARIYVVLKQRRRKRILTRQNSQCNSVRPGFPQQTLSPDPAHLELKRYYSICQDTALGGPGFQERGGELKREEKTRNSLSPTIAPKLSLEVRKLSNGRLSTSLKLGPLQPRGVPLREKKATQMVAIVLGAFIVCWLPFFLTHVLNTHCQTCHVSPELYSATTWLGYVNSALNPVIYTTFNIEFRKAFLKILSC
# T3 sequence (P34969 whole entry): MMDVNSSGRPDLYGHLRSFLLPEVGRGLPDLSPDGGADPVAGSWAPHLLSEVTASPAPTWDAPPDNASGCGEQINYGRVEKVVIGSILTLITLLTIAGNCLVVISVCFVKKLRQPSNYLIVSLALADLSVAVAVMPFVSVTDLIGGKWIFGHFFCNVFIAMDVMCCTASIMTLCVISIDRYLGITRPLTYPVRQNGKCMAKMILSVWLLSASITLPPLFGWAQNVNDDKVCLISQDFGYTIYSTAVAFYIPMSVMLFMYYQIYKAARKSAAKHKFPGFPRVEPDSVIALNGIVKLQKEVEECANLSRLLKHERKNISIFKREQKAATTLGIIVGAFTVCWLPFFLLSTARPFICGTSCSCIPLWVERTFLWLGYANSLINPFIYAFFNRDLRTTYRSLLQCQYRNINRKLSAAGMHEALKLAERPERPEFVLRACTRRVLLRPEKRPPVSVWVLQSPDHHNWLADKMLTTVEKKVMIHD
# Sequence of dopaminergic D2 receptor (P14416 whole entry): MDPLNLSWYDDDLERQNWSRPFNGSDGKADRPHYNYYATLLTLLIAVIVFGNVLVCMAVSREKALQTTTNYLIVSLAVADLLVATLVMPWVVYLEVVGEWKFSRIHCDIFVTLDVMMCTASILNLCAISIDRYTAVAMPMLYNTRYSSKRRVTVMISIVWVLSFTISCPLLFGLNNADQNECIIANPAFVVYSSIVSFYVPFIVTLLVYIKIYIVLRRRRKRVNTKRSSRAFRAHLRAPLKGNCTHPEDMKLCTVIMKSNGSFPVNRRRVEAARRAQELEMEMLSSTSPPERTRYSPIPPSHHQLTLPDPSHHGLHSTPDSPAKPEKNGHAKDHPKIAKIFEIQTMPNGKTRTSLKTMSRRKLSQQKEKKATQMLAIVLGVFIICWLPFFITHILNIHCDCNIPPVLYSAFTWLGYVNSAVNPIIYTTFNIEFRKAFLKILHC
# Sequence of serotoninergic 5-HT2A receptor (P28223 whole entry): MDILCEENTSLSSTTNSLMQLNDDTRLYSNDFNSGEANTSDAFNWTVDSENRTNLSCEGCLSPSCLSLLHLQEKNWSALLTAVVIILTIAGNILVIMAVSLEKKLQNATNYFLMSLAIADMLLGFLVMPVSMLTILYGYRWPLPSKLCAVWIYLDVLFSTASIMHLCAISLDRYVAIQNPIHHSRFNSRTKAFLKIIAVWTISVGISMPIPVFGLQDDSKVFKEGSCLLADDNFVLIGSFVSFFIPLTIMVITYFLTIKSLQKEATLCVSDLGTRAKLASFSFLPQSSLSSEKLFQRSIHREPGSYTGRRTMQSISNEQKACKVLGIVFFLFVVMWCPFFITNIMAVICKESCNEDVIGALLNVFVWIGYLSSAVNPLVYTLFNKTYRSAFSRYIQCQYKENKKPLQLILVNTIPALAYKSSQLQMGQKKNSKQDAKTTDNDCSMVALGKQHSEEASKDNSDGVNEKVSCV
# T2 sequence (P31645 whole entry): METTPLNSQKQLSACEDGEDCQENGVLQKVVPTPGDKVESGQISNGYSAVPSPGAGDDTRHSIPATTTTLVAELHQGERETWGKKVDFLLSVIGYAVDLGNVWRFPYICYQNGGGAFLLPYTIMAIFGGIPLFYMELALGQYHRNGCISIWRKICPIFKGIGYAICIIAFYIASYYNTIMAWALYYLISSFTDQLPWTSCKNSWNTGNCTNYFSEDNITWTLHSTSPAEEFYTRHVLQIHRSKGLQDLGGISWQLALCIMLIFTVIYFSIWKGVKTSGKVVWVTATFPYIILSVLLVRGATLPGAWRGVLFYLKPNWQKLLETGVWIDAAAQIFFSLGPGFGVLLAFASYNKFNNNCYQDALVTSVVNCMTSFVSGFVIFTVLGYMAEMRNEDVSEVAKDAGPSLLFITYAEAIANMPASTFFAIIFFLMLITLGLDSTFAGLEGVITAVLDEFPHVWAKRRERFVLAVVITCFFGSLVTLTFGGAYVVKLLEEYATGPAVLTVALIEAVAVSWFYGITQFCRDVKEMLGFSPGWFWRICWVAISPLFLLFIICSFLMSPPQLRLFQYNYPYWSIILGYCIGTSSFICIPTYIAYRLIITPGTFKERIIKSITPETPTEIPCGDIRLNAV
Structure (SMILES),inhibition at 1 µM [1] [%],inhibition at 1 µM [2] [%],activation at 1 µM [3] [%],inhibition at 1 µM [3] [%],inhibition at 1 µM (dopaminergic D3 receptor) [%],activation at 1 µM (dopaminergic D3 receptor) [%],activation at 1 µM [4] [%],inhibition at 1 µM [4] [%],inhibition at 1 µM [5] [%],activation at 1 µM (adrenergic α1A receptor) [%],inhibition at 1 µM (adrenergic α1A receptor) [%],activation at 1 µM (dopaminergic D2 receptor) [%],inhibition at 1 µM (dopaminergic D2 receptor) [%],activation at 1 µM [6] [%],inhibition at 1 µM [6] [%]
"O=S(=O)(NCCCN1CCC(c2noc3cc(F)ccc23)CC1)c1ccc2cc(Cl)ccc2c1 [Compound 98, 6-Chloro-N-[3-[4-(6-fluoro-1,2-benzoxazol-3-yl)piperidin-1-yl]propyl]naphthalene-2-sulphonamide]",91,54,-2,97,109,-10,-2,92,98,0,99,4,80,-2,79
"Cc1c(S(=O)(=O)NCCCCN2CCC(c3noc4cc(F)ccc34)CC2)sc2ccc(F)cc12 [Compound 101, 5-Fluoro-N-[4-[4-(6-fluoro-1,2-benzoxazol-3-yl)piperidin-1-yl]butyl]-3-methylbenzothiophene-2-sulphonamide]",80,47,-1,100,112,-18,-2,101,98,0,100,6,85,-2,103
"O=S(=O)(NCCCCN1CCC(c2noc3cc(F)ccc23)CC1)c1cc2ccc(Cl)cc2s1 [Compound 314, 6-Chloro-N-[4-[4-(6-fluoro-1,2-benzoxazol-3-yl)piperidin-1-yl]butyl]benzothiophene-2-sulphonamide]",85,50,-2,99,110,-30,-3,95,99,1,100,9,86,0,91
"N#Cc1cccc(S(=O)(=O)NCCCN2CCC(c3noc4cc(F)ccc34)CC2)c1 [Compound 338, 3-cyano-N-[3-[4-(6-fluoro-1,2-benzoxazol-3-yl)piperidin-1-yl]propyl]benzenesulphonamide]",76,21,-1,100,109,-10,-3,100,98,2,100,3,88,0,88
"O=S(=O)(NCCCN1CCC(c2noc3cc(F)ccc23)CC1)c1ccc2cn[nH]c2c1 [Compound 352, N-[3-[4-(6-Fluoro-1,2-benzoxazol-3-yl)piperidin-1-yl]propyl]-1H-indazole-6-sulphonamide]",78,56,-1,100,113,-18,-2,102,100,1,100,12,88,-2,75
"O=S(=O)(NCCCCN1CCC(c2noc3cc(F)ccc23)CC1)c1ccc2ccccc2c1 [Compound 18, N-[4-[4-(6-Fluoro-1,2-benzoxazol-3-yl)piperidin-1-yl]butyl]naphthalene-2-sulphonamide]",73,39,-1,102,114,-27,-1,89,98,0,99,-1,98,1,87
"O=S(=O)(NCCCCN1CCN(c2noc3ccccc23)CC1)c1ccc2ccccc2c1 [Compound 14, N-(4-(4-(1,2-Benzoxazol-3-yl)piperazin-1-yl)butyl)naphthalene-2-sulphonamide]",51,3,1,100,92,-15,-1,85,99,0,100,4,98,1,69
"O=S(=O)(NCCCCN1CCC(c2noc3cc(F)ccc23)CC1)c1cc2ccccc2s1 [Compound 312, N-[4-[4-(6-Fluoro-1,2-benzoxazol-3-yl)piperidin-1-yl]butyl]benzothiophene-2-sulphonamide]",80,35,-2,98,97,10,-2,97,97,0,100,4,90,-1,76
